Test results published in paper PMC8620685, “Effect of Selected Silyl Groups on the Anticancer Activity of 3,4-Dibromo-5-Hydroxy-Furan-2(5H)-One Derivatives” (Pharmaceuticals, 2021).
Read-outs that look alike come from different tables or passages of the source.

What was measured:
HT-29 = assay: MTT assay, HT-29; assay type: cell-based; conditions: Homo sapiens, HT-29, 72 h, read-out: IC50 (cytotoxicity), HT-29
Experimental: (§1) The in vitro antitumor activities of the MBA and its derivatives (Table 2) were assayed against a panel of human cancer cell lines (HCT116, HCT-116 ^−/−p53, HT-29, MCF-7, SJSA-1, U2OS, HepG2 and Hep3B) using the MTT assay. As a reference drug we used 5-fluorouracil (5-FU). […] On the basis of in vitro antiproliferative activities, compounds 3b and 3c were selected for further mechanistic studies in the HCT-116 cell line.
(§2) Human cells lines: colon cancer (HCT-116 wt, HT-29), non-small lung carcinoma (A549), and bronchial epithelial cells (BEAS-2B) were obtained from American Type Culture Collection (ATCC, Manassas, VA, USA). Isogenic cell line HCT 116 p53^−/− (deleted both p53 alleles) were a gift from Dr. Bert Vogelstein. Other cell lines, namely MCF-7, SJSA-1, U2OS, HepG2, and Hep3B were received from the collection stored at Centre of Biotechnology of Silesian University of Technology. All cells were grown in DMEM with a high glucose medium (Sigma-Aldrich, Taufkirchen, Germany) supplemented with 10% (v/v) inactivated fetal bovine serum (FBS) (EURx, Gdańsk, Poland) and 1% antibiotics (10,000 μg/mL of streptomycin and 10,000 units/ml of penicillin) (Sigma-Aldrich, Taufkirchen, Germany) at 37 °C in humidified 5% CO2. The maximum concentration of DMSO in the culture media was 0.4%.
(§3) 5 × 10^3 cells per well for the MCF-7 cell line and 2.5 × 10^3 cells per well for the other cell lines were seeded in 96-well plates to adhere for 24 h. Afterward, the cells were treated with tested compounds. After 72 hours of incubation, 50 μL 0.5 mg/ml solution of MTT (3-(4,5-dimethylthiazol-2-yl)-2,5-diphenyl-2H-tetrazolium bromide) were added to each well and the plates were incubated for 3 h at 37 °C. Next, the MTT solution was removed from the plates and formed formazan crystals were dissolved in 2-propanol (Avantor Performance Materials, Gliwice, Poland) containing 0.04 M hydrochloric acid (Avantor Performance Materials, Gliwice, Poland). The absorbance was measured at 570 nm wavelength using a multiwall plate reader (BioTek, Winooski, VT, USA). The experiment was performed at a minimum of 3 independent replicates. Cell viability was set as a percentage versus vehicle control. IC50 was defined as a concentration of a drug that decreased cell viability by 50% relative to the untreated control.

Hep3B = assay: MTT assay, Hep3B; assay type: cell-based; conditions: Homo sapiens, read-out: IC50 (cytotoxicity), Hep3B
Experimental: as §1, §2, §3

MCF-7 = assay: MTT assay, MCF-7; assay type: cell-based, human; conditions: Homo sapiens, MCF7, 72 h, read-out: IC50 (cytotoxicity), MCF-7, MTT, 72 h incubation
Experimental: as §1, §2, §3

cleaved caspase-3 = assay: Human Apoptosis Proteome Profiler array, cleaved caspase-3; assay type: cell-based; conditions: HCT-116, 1 h exposure, 2 × IC50 (3b at 30.2 μM)
From the text: To explore in detail the molecular mechanism of apoptosis induction by compounds 3b and 3c, we employed Human Apoptosis Proteome Profiler arrays that allow quantification of apoptosis-related biomarkers (Figure 3C). […] Collectively, it can be concluded that silyl derivative 3b promotes cell death in HCT 116 cells by the alteration of expression levels of survivin and activation of caspase-3.
The Human Apoptosis Array Kit (R&D Systems, Abingdon, UK) was used to determine the levels of expression of apoptosis-related proteins. 2.5 × 10^5 HCT 116 wt cells were seeded on 100 mm dishes (Nunc, ThermoFisher, Waltham, MA, USA) and allowed to attach for 24 h. Then the medium was replaced with tested compounds at a concentration corresponding 2 × IC50 value and the cells were incubated in 37 °C. After 60 min the cells were lysed and the lysates were clarified by centrifugation for 30 min at 14,000× g. The total protein concentration was measured using the Protein Quantification Kit-Rapid (Sigma-Aldrich, Taufkirchen, Germany) according to the manufacturer’s instruction. The next steps followed instructions from the manufacturer of the Human Apoptosis Array Kit. The membranes were then scanned in the G:Box trans illuminator (Syngene, Cambridge, UK) and the protein expression levels were quantified by densitometric analysis using ImageJ software.

[1] = MTT assay, normal bronchial epithelium cell line BEAS-2B; assay type: cell-based; conditions: human
Experimental: (§4) One of the major drawbacks of currently used anticancer drugs is their low selectivity, which often leads to undesired side effects that may be harmful to patients. Overcoming this challenging task requires special attention at the pre-clinical development level. To check whether silyl group incorporation may affect the selectivity of compounds towards cancer cells, MBA and all its new silyl derivatives were tested for their efficacy on noncancerous BEAS-2B and cancerous A549 cells line. […] In contrast, compounds 3a and 3d were more cytotoxic to A549 cells with SI values 6.05 and 1.72, respectively. Strikingly, those two compounds have similar cLogP values 3.08 and 3.22, respectively.
as §2, §3

HCT 116 p53−/− = assay: MTT assay, HCT 116 p53−/−; assay type: cell-based; conditions: Homo sapiens, HCT-116, 72 h, read-out: IC50 (cytotoxicity), HCT 116 p53−/−
Experimental: as §1, §2, §3

SJSA-1 = assay: MTT assay, SJSA-1; assay type: cell-based; conditions: Homo sapiens, read-out: IC50 (cytotoxicity), SJSA-1
Experimental: as §1, §2, §3

U2OS = assay: MTT assay, U2OS; assay type: cell-based; conditions: Homo sapiens, 72 h, read-out: IC50 (cytotoxicity), U2OS
Experimental: as §1, §2, §3

HCT-116 cells = assay: Annexin V-FITC/PI apoptosis assay; assay type: cell-based, human
Experimental: To verify this thesis, we utilized annexin-V/PI double staining of cells, which were subsequently subjected to flow cytometric analysis.
The HCT 116 cells were seeded in 6-well plate (Nunc, ThermoFisher, Waltham, MA, USA) at a density of 5 × 10^4 cells/well and allowed to attach. After 24 h the medium was replaced with tested compounds. The cells were then incubated for 24 h at 37 °C. Next, both floating and adherent cells were harvested and centrifuged at 600× g. The cells were washed with PBS (phosphate buffered saline) (Sigma-Aldrich, Taufkirchen, Germany) and we followed instructions from the manufacturer of the Annexin V-FITC Apoptosis Detection Kit (Biotool, Jupiter, FL, USA). Fluorescence was measured using a Becton Dickinson FACS Aria III sorter (BD Company, San Diego, CA, USA). Experiments were repeated at least twice. Data were analyzed using FCE Express 7 Software (DeNovo Software, Pasadena, CA, USA).

HCT 116 wt = assay: MTT assay, HCT 116 wt; assay type: cell-based, human; conditions: Homo sapiens, HCT-116, 72 h, read-out: IC50 (cytotoxicity), HCT 116 wt, MTT, 72 h incubation
Experimental: as §1, §2, §3

A549 = assay: MTT assay, NSCLC cell line A549; assay type: cell-based, human; conditions: for IC50: Homo sapiens, read-out: IC50 (cytotoxicity), A549; for SI: selectivity, A549 versus BEAS-2B
Experimental: as §4, §2, §3

[2] = BEAS-2B cells (noncancerous bronchial epithelial cells), MTT, 72 h incubation, noncancerous cells, read-out: IC50 (cytotoxicity), BEAS-2B

## CC(C)[Si](OC1OC(=O)C(Br)=C1Br)(C(C)C)C(C)C (stereo not shown) [Compound 3b, 3,4-Dibromo-5-(triisopropylsilyloxy)-furan-2(5H)-one]
HT-29
  IC50: 7.3 ± 0.8 µM
Hep3B; MTT, 72 h incubation
  IC50: 21.3 ± 3.5 µM
MCF-7
  IC50: 7.7 ± 0.9 µM
Cleaved caspase-3
  cleaved caspase-3 level (caspase-3 activation): significant up-regulation of cleaved caspase-3
[1]; [2]
  IC50 at 72 h: 12.5 ± 1.4 µM
HCT 116 p53−/−
  IC50: 10.8 ± 1 µM
SJSA-1; SJSA-1, MTT, 72 h incubation
  IC50: 9.9 ± 1.1 µM
U2OS
  IC50: 9.3 ± 0.2 µM
HCT-116 cells; 20 μM, 24 h, HCT-116
  apoptotic (death) cells in total, annexin-V+/PI− plus annexin-V+/PI+: roughly 30%
HCT-116 cells; HCT-116, statement in discussion
  induction of apoptosis / cell death in HCT-116: rapidly triggered cell death
HCT 116 wt
  IC50: 15.1 ± 1.2 µM
A549; A549, MTT, 72 h incubation
  IC50: 30.4 ± 4.2 µM
A549
  SI: 0.41

## CC(C)(C)[Si](OC1OC(=O)C(Br)=C1Br)(c1ccccc1)c1ccccc1 (stereo not shown) [Compound 3c, 3,4-Dibromo-5-(tert-butyldiphenylsilyloxy)-furan-2(5H)-one]
HT-29
  IC50: 3.9 ± 0.2 µM
Hep3B; MTT, 72 h incubation
  IC50: 65.6 ± 2.2 µM
MCF-7
  IC50: 10.9 ± 0.7 µM
Cleaved caspase-3
  cleaved caspase-3 level (caspase-3 activation): neither the MBA nor compound 3c induced caspase-3 activation
[1]; [2]
  IC50 at 72 h: 20.3 ± 0.6 µM
HCT 116 p53−/−
  IC50: 4 ± 0.3 µM
SJSA-1; SJSA-1, MTT, 72 h incubation
  IC50: 14.9 ± 1.5 µM
U2OS
  IC50: 10.2 ± 0.8 µM
HCT-116 cells; 20 μM, 24 h, HCT-116
  apoptotic (death) cells in total, annexin-V+/PI− plus annexin-V+/PI+: 18.5%
HCT 116 wt
  IC50: 6.3 ± 0.3 µM
A549; A549, MTT, 72 h incubation
  IC50: 29.1 ± 1 µM
A549
  SI: 0.70

## O=C1OC(O)C(Br)=C1Br (stereo not shown) [MBA, 3,4-dibromo-5-hydroxyfuran-2(5H)-one, reference compound]
HT-29
  IC50: 97.1 ± 6.6 µM
Hep3B; 72 h
  IC50: 125 ± 10.5 µM
MCF-7
  IC50: 142 ± 22.6 µM
Cleaved caspase-3
  cleaved caspase-3 level (caspase-3 activation): neither the MBA nor compound 3c induced caspase-3 activation
[1]
  IC50 at 72 h: 39.7 ± 9.7 µM
HCT 116 p53−/−
  IC50: 25.4 ± 6 µM
SJSA-1; SJSA-1, 72 h
  IC50: 213 ± 8.8 µM
U2OS
  IC50: 97.6 ± 1.1 µM
HCT-116 cells; 20 μM, 24 h, HCT-116
  proapoptotic activity: negligible proapoptotic activity
HCT 116 wt
  IC50: 20.5 ± 5.2 µM
A549; A549, 72 h
  IC50: 203 ± 0.3 µM
A549
  SI: 0.2
